Data taken from patent US9216991B2 (Ares Trading S.A., priority 2012, dated 2015).
Counter-ions that a name gives are not always drawn.

Each molecule was assayed against T1, IRAK4 (Homo sapiens, UniProt Q9NWZ3) (assay: IRAK4 Enzymatic Assay). Conditions: His-TEV-IRAK4 20 ng/well, ATP 2 μM, STK1-biotin peptide 300 nM, 3 hours at 30° C., FlashPlate radioactivity.
T1 construct: His (N); TEV cleavage site (N)
T1 sequence (Q9NWZ3 1-460): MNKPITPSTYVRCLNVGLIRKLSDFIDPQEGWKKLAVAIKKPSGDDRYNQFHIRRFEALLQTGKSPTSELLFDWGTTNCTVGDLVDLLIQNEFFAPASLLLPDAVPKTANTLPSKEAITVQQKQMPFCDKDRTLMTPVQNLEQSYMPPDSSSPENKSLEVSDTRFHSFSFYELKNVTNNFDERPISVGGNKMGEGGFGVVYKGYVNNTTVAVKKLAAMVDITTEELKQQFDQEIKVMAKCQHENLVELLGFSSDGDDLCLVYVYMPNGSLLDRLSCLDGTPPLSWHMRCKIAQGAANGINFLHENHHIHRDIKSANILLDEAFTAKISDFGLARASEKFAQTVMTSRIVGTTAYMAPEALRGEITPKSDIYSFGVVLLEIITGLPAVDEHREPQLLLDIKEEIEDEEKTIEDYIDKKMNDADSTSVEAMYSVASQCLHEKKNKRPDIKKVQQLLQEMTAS
Type: biochemical
Outline: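 Radiometric FlashPlate readout: biotin-STK1 substrate (300 nM) captured on streptavidin after EDTA stop and washes. Reaction used His-TEV-IRAK4 (20 ng/well), 2 μM [^33P]-spiked ATP and compound (1 nM-20 μM), incubated 3 h at 30 °C in 50 mM HEPES pH 7.0, 10 mM MgCl2, 5 mM MnCl2, 2 mM DTT.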

IC50 [nM]	SMILES
100 to 1000	CCOCC(=O)N1CCC(n2cc(-c3cnc(-c4cccc(-c5cnn(C)c5)c4)nc3)cn2)CC1 [Example 111, 2-Ethoxy-1-[4-(4-{2-[3-(1-methyl-1H-pyrazol-4-yl)-phenyl]-pyrimidin-5-yl}-pyrazol-1-yl)-piperidin-1-yl]-ethanone]
100 to 1000	Cn1cc(-c2cccc(-c3ncc(-c4cnn(CC(=O)N5CCC5)c4)cn3)c2)cn1 [Example 77, 1-Azetidin-1-yl-2-(4-{2-[3-(1-methyl-1H-pyrazol-4-yl)-phenyl]-pyrimidin-5-yl}-pyrazol-1-yl)-ethanone]
100 to 1000	Cc1ncccc1CCn1cc(-c2cnc(-c3cccc(-c4cnn(C)c4)c3)nc2)cn1 [Example 89, 2-[3-(1-Methyl-1H-pyrazol-4-yl)-phenyl]-5-{1-[2-(2-methyl-pyridin-3-yl)-ethyl]-1H-pyrazol-4-yl}-pyrimidine]
100 to 1000	Cn1cc(-c2cccc(-c3ncc(-c4cnn(C5CCC(C(=O)O)CC5)c4)cn3)c2)cn1 (stereo not drawn) [Example 62, 4-(4-{2-[3-(1-Methyl-1H-pyrazol-4-yl)-phenyl]-pyrimidin-5-yl}-pyrazol-1-yl)-cyclohexanecarboxylic acid]
< 100	COCCN(C)C(=O)[C@H]1CC[C@H](n2cc(-c3cnc(-c4cccc(-c5cnn(C)c5)c4)nc3)cn2)CC1 [Example 152, Trans-4-(4-{2-[3-(1-Methyl-1H-pyrazol-4-yl)-phenyl]-pyrimidin-5-yl}-pyrazol-1-yl)-cyclohexanecarboxylic acid (2-methoxy-ethyl)-methyl-amide]
< 100	CC1COCCC1N1CCC(n2cc(-c3cnc(-c4cccc(-c5cnn(C)c5)c4)nc3)cn2)CC1 (stereo not drawn) [Example 275, 2-[3-(1-Methyl-1H-pyrazol-4-yl)-phenyl]-5-{1-[1-(3-methyl-tetrahydro-pyran-4-yl)-piperidin-4-yl]-1H-pyrazol-4-yl}-pyrimidine]
1000 to 5000	Cc1nn(C)cc1-c1cccc(-c2ncc(-c3cnn(C4CCNCC4)c3)cn2)c1 [Example 14, 2-[3-(1,3-Dimethyl-1H-pyrazol-4-yl)-phenyl]-5-(1-piperidin-4-yl-1H-pyrazol-4-yl)-pyrimidine hydrochloride]
1000 to 5000	CNC(=O)c1nn(C)cc1-c1cnc(-c2cccc(-c3cnn(C)c3)c2)nc1 [Example 144, 1-Methyl-4-{2-[3-(1-methyl-1H-pyrazol-4-yl)-phenyl]-pyrimidin-5-yl}-1H-pyrazole-3-carboxylic acid methylamide]
100 to 1000	Cn1cc(-c2cccc(-c3ncc(-c4cnn(CC5CCNC5)c4)cn3)c2)cn1 (stereo not drawn) [Example 65, 2-[3-(1-Methyl-1H-pyrazol-4-yl)-phenyl]-5-(1-pyrrolidin-3-ylmethyl-1H-pyrazol-4-yl)-pyrimidine hydrochloride]
< 100	CC(=O)N1CCC[C@@H](n2cc(-c3cnc(-c4cccc(-c5cnn(C)c5)c4)nc3)cn2)C1 [Example 269, 1-[3-((R)-4-{2-[3-(1-Methyl-1H-pyrazol-4-yl)-phenyl]-pyrimidin-5-yl}-pyrazol-1-yl)-piperidin-1-yl]-ethanone]
1000 to 5000	Cn1cc(-c2cccc(-c3ncc(-c4cnn(CC(N)=O)c4)cn3)c2)cn1 [Example 49, 2-(4-{2-[3-(1-Methyl-1H-pyrazol-4-yl)-phenyl]-pyrimidin-5-yl}-pyrazol-1-yl)-acetamide]
100 to 1000	CN1CCC(n2cc(-c3cnc(-c4cccc(-c5cnn(C)c5)c4)nc3)cn2)CC1 [Example 6, 5-[1-(1-Methyl-piperidin-4-yl)-1H-pyrazol-4-yl]-2-[3-(1-methyl-1H-pyrazol-4-yl)-phenyl]-pyrimidine]
100 to 1000	Cn1cc(-c2cccc(-c3ncc(-c4cnn(CC(=O)N5CCCOCC5)c4)cn3)c2)cn1 [Example 93, 2-(4-{2-[3-(1-Methyl-1H-pyrazol-4-yl)-phenyl]-pyrimidin-5-yl}-pyrazol-1-yl)-1-[1,4]oxazepan-4-yl-ethanone]
1000 to 5000	Cn1cc(-c2cccc(-c3ncc(-c4cnn(CC5CCNCC5)c4)cn3)c2)cn1 [Example 29, 2-[3-(1-Methyl-1H-pyrazol-4-yl)-phenyl]-5-(1-piperidin-4-ylmethyl-1H-pyrazol-4-yl)-pyrimidine hydrochloride]
< 100	Cn1cc(-c2cccc(-c3ncc(-c4cnn([C@H]5CC[C@H](NCCO)CC5)c4)cn3)c2)cn1 [Example 289, 2-trans-[4-(4-{2-[3-(1-Methyl-1H-pyrazol-4-yl)-phenyl]-pyrimidin-5-yl}-pyrazol-1-yl)-cyclohexylamino]-ethano]
100 to 1000	Cn1cc(-c2cccc(-c3ncc(-c4cnn(C5CCOCC5)c4)cn3)c2)cn1 [Example 97, 2-[3-(1-Methyl-1H-pyrazol-4-yl)-phenyl]-5-[1-(tetrahydro-pyran-4-yl)-1H-pyrazol-4-yl]-pyrimidine]
< 100	CNC(=O)[C@H]1CC[C@H](n2cc(-c3cnc(-c4cccc(-c5cnn(C)c5)c4)nc3)cn2)CC1 [Example 143, Trans-4-(4-{2-[3-(1-Methyl-1H-pyrazol-4-yl)-phenyl]-pyrimidin-5-yl}-pyrazol-1-yl)-cyclohexanecarboxylic acid methylamide]
100 to 1000	Cn1cc(-c2cccc(-c3ncc(-c4cnn(C5CCN(C(=O)C6CCOC6)CC5)c4)cn3)c2)cn1 (stereo not drawn) [Example 104, [4-(4-{2-[3-(1-Methyl-1H-pyrazol-4-yl)-phenyl]-pyrimidin-5-yl}-pyrazol-1-yl)-piperidin-1-yl]-(tetrahydro-furan-3-yl)-methanone]
100 to 1000	COc1ccc(CCn2cc(-c3cnc(-c4cccc(-c5cnn(C)c5)c4)nc3)cn2)cc1OC [Example 96, 5-{1-[2-(3,4-Dimethoxy-phenyl)-ethyl]-1H-pyrazol-4-yl}-2-[3-(1-methyl-1H-pyrazol-4-yl)-phenyl]-pyrimidine]
100 to 1000	CN(C)C(=O)[C@H]1CC[C@H](n2cc(-c3cnc(-c4cccc(-c5ccnnc5)c4)nc3)cn2)CC1 [Example 233, Trans-4-{4-[2-(3-Pyridazin-4-yl-phenyl)-pyrimidin-5-yl]-pyrazol-1-yl}-cyclohexanecarboxylic acid dimethylamide]
100 to 1000	Cn1cc(-c2cccc(-c3ncc(-c4cnn(CC(F)F)c4)cn3)c2)cn1 [Example 67, 5-[1-(2,2-Difluoro-ethyl)-1H-pyrazol-4-yl]-2-[3-(1-methyl-1H-pyrazol-4-yl)-phenyl]-pyrimidine]
< 100	CN(C)C(=O)[C@H]1CC[C@H](n2cc(-c3cnc(-c4cccc(-c5cnn(C)c5)c4)nc3)cn2)CC1 [Example 134, Trans-4-(4-{2-[3-(1-Methyl-1H-pyrazol-4-yl)-phenyl]-pyrimidin-5-yl}-pyrazol-1-yl)-cyclohexanecarboxylic acid dimethylamide]
100 to 1000	c1ccc(Cn2cc(-c3cccc(-c4ncc(-c5cnn(C6CCNCC6)c5)cn4)c3)cn2)cc1 [Example 21, 2-[3-(1-Benzyl-1H-pyrazol-4-yl)-phenyl]-5-(1-piperidin-4-yl-1H-pyrazol-4-yl)-pyrimidine hydrochloride]
< 100	CN(CCO)C(=O)[C@H]1CC[C@H](n2cc(-c3cnc(-c4cccc(-c5cnn(C)c5)c4)nc3)cn2)CC1 [Example 185, trans-4-(4-{2-[3-(1-Methyl-1H-pyrazol-4-yl)-phenyl]-pyrimidin-5-yl}-pyrazol-1-yl)-cyclohexanecarboxylic acid (2-hydroxy-ethyl)-methyl-amide]
< 100	Cn1cc(-c2cccc(-c3ncc(-c4cnn([C@H]5CC[C@H](C(=O)NCC(C)(C)O)CC5)c4)cn3)c2)cn1 [Example 227, trans-4-(4-{2-[3-(1-Methyl-1H-pyrazol-4-yl)-phenyl]-pyrimidin-5-yl}-pyrazol-1-yl)-cyclohexanecarboxylic acid (2-hydroxy-2-methyl-propyl)-amide]
< 100	Cn1cc(-c2cccc(-c3ncc(-c4cnn([C@H]5CCC[S@@+]([O-])C5)c4)cn3)c2)cn1 (racemic) [Example 236, 2-[3-(1-Methyl-1H-pyrazol-4-yl)-phenyl]-5-[1-(Cis-1-oxo-tetrahydro-thiopyran-3-yl)-1H-pyrazol-4-yl]-pyrimidine]
1000 to 5000	Cn1cncc1-c1cccc(-c2ncc(-c3cnn(CC(=O)N4CCCC4)c3)cn2)c1 [Example 37, 2-(4-{2-[3-(3-Methyl-3H-imidazol-4-yl)-phenyl]-pyrimidin-5-yl}-pyrazol-1-yl)-1-pyrrolidin-1-yl-ethanone]
1000 to 5000	O=C(Cn1cc(-c2cccc(-c3ncc(-c4cnn(C5CCNCC5)c4)cn3)c2)cn1)N1CCCC1 [Example 17, 2-(4-{3-[5-(1-Piperidin-4-yl-1H-pyrazol-4-yl)-pyrimidin-2-yl]-phenyl}-pyrazol-1-yl)-1-pyrrolidin-1-yl-ethanone hydrochloride]
1000 to 5000	CNC(=O)C(CCO)n1cc(-c2cnc(-c3cccc(-c4cnn(C)c4)c3)nc2)cn1 (stereo not drawn) [Example 169, 4-Hydroxy-N-methyl-2-(4-{2-[3-(1-methyl-1H-pyrazol-4-yl)-phenyl]-pyrimidin-5-yl}-pyrazol-1-yl)-butyramide]
100 to 1000	Cn1cc(-c2cccc(-c3ncc(-c4cnn(C5CCN(C(=O)C6CC(O)C6)CC5)c4)cn3)c2)cn1 (stereo not drawn) [Example 120, (3-Hydroxy-cyclobutyl)-[4-(4-{2-[3-(1-methyl-1H-pyrazol-4-yl)-phenyl]-pyrimidin-5-yl}-pyrazol-1-yl)-piperidin-1-yl]-methanone]
